In ChEMBL document CHEMBL5154818, “Development of oxoisoaporphine derivatives with topoisomerase I inhibition and reversal of multidrug resistance in breast cancer MCF-7/ADR cells” (Eur J Med Chem, 2022):
Activity calls are given as the source filed them. No cut-off for these calls is given here.

What was measured:
MCF7 [1] = assay: Induction of cell cycle arrest in human MCF7 cells assessed accumulation of cells at G2 phase at 2 uM measured after 48 hrs by propidium iodide staining based flow cytometric analysis (reference value: 37.81%); assay type: functional
NCI/ADR-RES [2] = assay: Reversal of multidrug resistant activity in human MCF7/ADR cells after 48 hrs by MTT assay; assay type: functional, cell-based
Calf thymus DNA [3] = assay: Binding affinity to calf thymus DNA assessed as hypochromicity at 20 uM measured by UV-vis absorption spectroscopy; assay type: nucleic-acid assay; conditions: Bos taurus
[4] = target: T1, DNA topoisomerase 1 (Homo sapiens) (UniProt P11387); assay: Inhibition of human DNA topoisomerase 1 assessed as reduction in pBR322 DNA relaxation at 50 to 100 uM measured by gel electrophoresis method; conditions: dose 50-100 µM
T1 sequence (whole entry): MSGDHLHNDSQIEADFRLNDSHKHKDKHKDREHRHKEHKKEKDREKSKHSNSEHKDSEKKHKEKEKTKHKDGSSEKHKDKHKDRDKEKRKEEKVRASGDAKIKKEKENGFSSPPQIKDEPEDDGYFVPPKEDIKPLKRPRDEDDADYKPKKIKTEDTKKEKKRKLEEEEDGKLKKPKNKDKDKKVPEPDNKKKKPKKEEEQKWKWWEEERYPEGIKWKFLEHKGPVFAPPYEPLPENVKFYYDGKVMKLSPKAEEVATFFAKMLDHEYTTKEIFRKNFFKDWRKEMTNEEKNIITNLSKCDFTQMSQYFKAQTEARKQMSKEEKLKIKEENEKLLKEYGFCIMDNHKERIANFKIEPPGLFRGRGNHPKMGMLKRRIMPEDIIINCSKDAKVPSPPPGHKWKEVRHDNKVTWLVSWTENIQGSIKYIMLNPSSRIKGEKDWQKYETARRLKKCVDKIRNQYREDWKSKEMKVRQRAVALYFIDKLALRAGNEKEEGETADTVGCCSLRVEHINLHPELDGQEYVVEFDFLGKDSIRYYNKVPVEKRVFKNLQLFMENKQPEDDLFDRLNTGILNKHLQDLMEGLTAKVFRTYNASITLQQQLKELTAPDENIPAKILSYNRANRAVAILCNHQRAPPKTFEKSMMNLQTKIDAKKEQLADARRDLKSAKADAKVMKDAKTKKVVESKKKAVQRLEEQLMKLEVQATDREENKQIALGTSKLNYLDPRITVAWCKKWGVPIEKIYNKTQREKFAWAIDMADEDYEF

NCI/ADR-RES [5] = assay: Induction of apoptosis in human MCF7/ADR cells assessed as increase in Bad expression at 5 to 20 uM measured after 24 hrs by Western blotting analysis; assay type: functional, cell-based; conditions: dose 5-20 µM
[6] = target: T2, ATP-dependent translocase ABCB1 (Homo sapiens, UniProt P08183); assay: Inhibition of P-gp-mediated multidrug resistance in human MCF7/ADR cells assessed as decrease in P-gp expression at 10 uM measured after 24 hrs by Western blot analysis; assay type: cell-based; conditions: NCI/ADR-RES
HepG2 = assay: Antiproliferative activity against human HepG2 cells after 48 hrs by MTT assay; assay type: functional, cell-based; conditions: HepG2, 48 h
MCF7 [7] = assay: Induction of apoptosis in human MCF7 cells assessed as increase in cleaved PARP expression 1.5 to 6 uM incubated for 24 hrs by Western blotting analysis; assay type: functional, cell-based; conditions: dose 1.5-6 µM
[8] = Toxicity in BALB/c nude mouse xenografted with human MCF7 cells assessed as heart tissue damage at 1 to 10 mg/kg, ip administered 3 times a week for 3 weeks; assay type: organism-based; conditions: in vivo, 504 h, dose 1-10 mg/kg
MCF7 [9] = assay: Induction of cell cycle arrest in human MCF7 cells assessed accumulation of cells at S phase at 4 uM measured after 48 hrs by propidium iodide staining based flow cytometric analysis (reference value: 27.53%); assay type: functional
NCI/ADR-RES [10] = assay: Antiproliferative activity against human MCF7/ADR cells after 48 hrs by MTT assay; assay type: functional, cell-based
MCF7 [11] = assay: Induction of cell cycle arrest in human MCF7 cells assessed accumulation of cells at G2 phase at 4 uM measured after 48 hrs by propidium iodide staining based flow cytometric analysis (reference value: 37.81%); assay type: functional
Danio rerio = organism: Danio rerio; assay: Induction of apoptosis in zebrafish embryo assessed as increase intracellular ROS level at 0.01 to 1 uM measured by DCFH-DA dye based flow cytometric analysis; assay type: functional, organism-based; conditions: dose 0.01-1 µM
NCI/ADR-RES [12] = assay: Induction of apoptosis in human MCF7/ADR cells assessed as increase in apoptotic rate at 2 to 8 uM measured after 48 hrs by Annexin V-FITC/propidium iodide staining based flow cytometry analysis; assay type: functional; conditions: dose 2-8 µM
MCF7 [13] = assay: Induction of cell cycle arrest in human MCF7 cells assessed accumulation of cells at G1 phase at 8 uM measured after 48 hrs by propidium iodide staining based flow cytometric analysis (reference value: 45.94%); assay type: functional
[14] = target: T2, ATP-dependent translocase ABCB1; assay: Inhibition of P-gp-mediated multidrug resistance in human MCF7/ADR cells at 10 to 20 uM assessed as rhodamine123 accumulation treated with rhodamine123 measured after 24 hrs by flow cytometry; assay type: cell-based; conditions: nci/adr-res, dose 10-20 µM
MCF7 [15] = assay: Induction of cell cycle arrest in human MCF7 cells assessed accumulation of cells at G1 phase at 4 uM measured after 48 hrs by propidium iodide staining based flow cytometric analysis (reference value: 45.94%); assay type: functional
NCI/ADR-RES [16] = assay: Induction of apoptosis in human MCF7/ADR cells assessed as decrease in Bcl-2 expression at 5 to 20 uM measured after 24 hrs by Western blotting analysis; assay type: functional, cell-based; conditions: dose 5-20 µM
[17] = Toxicity in BALB/c nude mouse xenografted with human MCF7 cells assessed as kidney tissue damage at 1 to 10 mg/kg, ip administered 3 times a week for 3 weeks; assay type: organism-based; conditions: in vivo, 504 h, dose 1-10 mg/kg
MCF7 [18] = assay: Antiproliferative activity against human MCF7 cells after 48 hrs by MTT assay; assay type: functional, cell-based; conditions: MCF7, 48 h
MCF7 [19] = assay: Antitumor activity against human MCF7 cells xenografted in Balb/c nude mouse assessed as tumor growth inhibition at 10 mg/kg, ip administered 3 times a week for 3 weeks; assay type: functional; conditions: MCF7, 504 h, read-out: TGI
Calf thymus DNA [20] = assay: Binding affinity to calf thymus DNA assessed as red shift in absorption spectra at 20 uM by UV-vis absorption spectroscopy; assay type: nucleic-acid assay; conditions: Bos taurus
[21] = target: T2, ATP-dependent translocase ABCB1; assay: Inhibition of P-gp-mediated multidrug resistance in human MCF7/ADR cells at 10 to 20 uM assessed as adriamycin accumulation treated with adriamycin measured after 24 hrs by flow cytometry; assay type: cell-based; conditions: nci/adr-res, dose 10-20 µM
[22] = target: T2, ATP-dependent translocase ABCB1; assay: Inhibition of P-gp-mediated multidrug resistance in human MCF7/ADR cells assessed as decrease in P-gp expression at 20 uM measured after 24 hrs by Western blot analysis; assay type: cell-based; conditions: NCI/ADR-RES
[23] = Toxicity in BALB/c nude mouse xenografted with human MCF7 cells assessed as spleen tissue damage at 1 to 10 mg/kg, ip administered 3 times a week for 3 weeks; assay type: organism-based; conditions: in vivo, 504 h, dose 1-10 mg/kg
MCF7 [24] = assay: Induction of cell cycle arrest in human MCF7 cells assessed accumulation of cells at S phase at 2 uM measured after 48 hrs by propidium iodide staining based flow cytometric analysis (reference value: 27.53%); assay type: functional
A549 = assay: Antiproliferative activity against human A549 cells after 48 hrs by MTT assay; assay type: functional, cell-based; conditions: A549, 48 h
[25] = Toxicity in BALB/c nude mouse xenografted with human MCF7 cells assessed as liver tissue damage at 1 to 10 mg/kg, ip administered 3 times a week for 3 weeks; assay type: organism-based; conditions: in vivo, 504 h, dose 1-10 mg/kg

T2 sequence (P08183 whole entry): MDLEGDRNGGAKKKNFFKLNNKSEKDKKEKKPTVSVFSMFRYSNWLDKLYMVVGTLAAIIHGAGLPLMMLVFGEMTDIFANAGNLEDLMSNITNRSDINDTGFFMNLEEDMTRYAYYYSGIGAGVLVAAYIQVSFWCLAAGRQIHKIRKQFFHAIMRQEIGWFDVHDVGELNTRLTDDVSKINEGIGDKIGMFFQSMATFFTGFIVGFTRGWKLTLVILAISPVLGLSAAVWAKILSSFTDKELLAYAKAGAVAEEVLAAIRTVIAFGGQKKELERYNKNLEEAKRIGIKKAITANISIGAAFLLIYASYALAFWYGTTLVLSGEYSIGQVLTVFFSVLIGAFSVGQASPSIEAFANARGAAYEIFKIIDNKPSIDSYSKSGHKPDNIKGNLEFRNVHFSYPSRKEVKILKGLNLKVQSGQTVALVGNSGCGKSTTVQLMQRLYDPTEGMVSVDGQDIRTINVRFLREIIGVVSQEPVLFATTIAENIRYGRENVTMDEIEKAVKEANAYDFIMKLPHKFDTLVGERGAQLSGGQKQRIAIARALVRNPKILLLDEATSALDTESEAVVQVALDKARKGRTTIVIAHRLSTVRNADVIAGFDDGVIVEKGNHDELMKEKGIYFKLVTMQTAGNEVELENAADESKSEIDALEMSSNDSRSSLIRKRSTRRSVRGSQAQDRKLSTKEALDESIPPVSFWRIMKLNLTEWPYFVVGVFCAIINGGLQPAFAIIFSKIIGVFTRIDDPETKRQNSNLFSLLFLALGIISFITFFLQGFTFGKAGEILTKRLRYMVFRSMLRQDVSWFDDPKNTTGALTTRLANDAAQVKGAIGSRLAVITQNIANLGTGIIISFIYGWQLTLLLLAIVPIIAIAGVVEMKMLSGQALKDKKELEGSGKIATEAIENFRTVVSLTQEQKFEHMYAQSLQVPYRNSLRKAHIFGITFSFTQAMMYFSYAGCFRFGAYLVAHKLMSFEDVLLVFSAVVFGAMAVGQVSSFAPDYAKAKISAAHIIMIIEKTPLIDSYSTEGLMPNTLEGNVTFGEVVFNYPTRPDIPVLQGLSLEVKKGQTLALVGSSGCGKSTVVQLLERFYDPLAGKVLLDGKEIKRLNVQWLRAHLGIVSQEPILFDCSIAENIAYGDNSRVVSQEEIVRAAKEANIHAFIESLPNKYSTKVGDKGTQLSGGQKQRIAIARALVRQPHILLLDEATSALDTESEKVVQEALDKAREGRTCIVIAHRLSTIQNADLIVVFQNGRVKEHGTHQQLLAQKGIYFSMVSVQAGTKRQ

CC1CCCCN1CCOc1ccc2c3c(nccc13)-c1ccccc1C2=O (stereo not drawn)
Activity (MCF7 [1]): 33.28% | IC50 (NCI/ADR-RES [2]): 0.9 µM | Activity (Calf thymus DNA [3]): 33.9% | inhibition [4]: Active | Activity (NCI/ADR-RES [5]): Active | inhibition at 10 µM [6]: 14.9% | IC50 (HepG2): 4.88 µM | Activity (MCF7 [7]): Active | Activity [8]: Non-Toxic | Activity (MCF7 [9]): 25.08% | IC50 (NCI/ADR-RES [10]): 7.64 µM | Activity (MCF7 [11]): 32.26% | Activity (Danio rerio): Active | Activity (NCI/ADR-RES [12]): 15.2% | Activity (MCF7 [13]): 53.27% | inhibition (INH) [14]: Active | Activity (MCF7 [15]): 51.07% | Activity (NCI/ADR-RES [16]): Active | Activity [17]: Non-Toxic | IC50 (MCF7 [18]): 1.32 µM | inhibition in vivo at 10 mg/kg (MCF7 [19]): 7.2% | OD (Calf thymus DNA [20]): 2.2 nm | inhibition (INH) [21]: Active | inhibition at 20 µM [22]: 18.1% | Activity [23]: Non-Toxic | Activity (MCF7 [24]): 25.72% | IC50 (A549): 2.39 µM | Activity [25]: Non-Toxic
